Several values for one entry are separate records, joined by “and”; a condition that tells them apart may be missing. Equal values may be shown once.
Key:
[1] = Measurement of pKa value by NaOH titration in water/acetone; details: for pKa: water/acetone mixture (10/15 ml)
Protocol: (§1) In a water/acetone mixture (10/15 ml) solution was put 0.4045 g of the above-mentioned cyclopentene derivative, followed by stirring at room temperature. After it was confirmed that the solution became homogeneous, titration was carried out with about 0.2 mol/liter NaOH solution. A titration curve was obtained by adding a NaOH solution dropwise in increments of 0.15 ml and recording a pH value at every addition. An equivalence point was determined by an inflection point (maximum differential value of titration curve=dpH/dml) of the titration curve. […] From a titration curve of water/acetone solution and aqueous solution which had been measured previously as a blank solution, a difference in a pH value derived from an electric potential difference between the solutions at titration of 4.0 ml was 1.50.

physchem = details: (2) pKa
Protocol: as §1

[2] = titration with about 0.2 mol/liter NaOH in water/acetone, corrected with blank
[3] = (2) pKa, titration with about 0.2 mol/liter NaOH in water/acetone, corrected with blank

Row | Compound | (2) pKa [1, 2] | pKa [1, 3] | also measured
1 | OC(C(F)(F)F)(C(F)(F)F)C1(F)CC2C=CC1C2 (centres unmarked) |  | 9 | 
2 | OC(C(F)(F)F)(C(F)(F)F)C1(F)C2C=CC(C2)C1(F)F (centres unmarked) |  |  | pKa (physchem): 8.3
3 | OC(C(F)(F)F)C(F)(F)F [CF3CH(CF3)—OH, reference compound] | 9.3 |  | 
4 | OC(C1CC2C=CC1C2)(C(F)(F)F)C(F)(F)F (centres unmarked) |  | 10.2 | 
5 | OC1(C(F)(F)F)C2C=CC(C2)C1(F)F (centres unmarked) |  | 11.5 | 

Continued, in another order:

Row | (2) pKa [1, 2] | pKa [1, 3] | Compound | also measured
6 | 7.1 |  | CF2═CF—C(CF3)2OH [reference compound] | 
7 |  | 9.8 | OC(C1C=CCC1)(C(F)(F)F)C(F)(F)F (centres unmarked) [Example 12, cyclopentene having —C(CF3)2OH group] | pKa value (single titration) ([1]; individual titrations of 0.4045 g, 0.8104 g and 0.9812 g in water/acetone (10/15 ml), listed as cyclopentene derivative having —C(CF3)2OH group): 9.95 and 9.86; pKa ([1]; pKa value (single titration), individual titrations of 0.4045 g, 0.8104 g and 0.9812 g in water/acetone (10/15 ml)): 9.62
8 | 9.6 |  | CH2═CHCH2C(CF3)2OH [reference compound] | 
9 | 8.0 |  | CH2═CF—C(CF3)2OH [reference compound] | 
